Assay results: patent publication US20260193268A1, “TRICYCLIC PI3Ka INHIBITOR, PREPARATION METHOD THEREFOR, AND PHARMACEUTICAL USE THEREOF” (WIGEN BIOMEDICINE TECHNOLOGY (SHANGHAI) CO., LTD., priority 2022, published 2026)
Like-named read-outs stand apart in the source and are kept apart here.

Legend:
[1] = system: HCC1954 cells (with PI3Kα H1047R mutation); test: In vitro inhibition of HCC1954 cell proliferation (CellTiter-Lumi); type: cell-based; settings: Homo sapiens, HCC1954, 144 h
Protocol: Assay for In Vitro Inhibition of HCC1954 Cell Proliferation by Compounds of the Present Disclosure
The growth of the cells was evaluated, and the IC50 for the inhibition of cell growth by the compounds was calculated.

[2] = system: MCF-7 cells (with PI3Kα E545K mutation); test: In vitro inhibition of MCF-7 cell proliferation (CellTiter-Lumi); type: cell-based; settings: Homo sapiens, MCF7, 144 h
Outline: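 MCF-7 (PI3Kα E545K) seeded at 2000 cells/well; serially diluted compounds added next day and exposed for 144 h. Cellular ATP read by CellTiter-Lumi luminescence; IC50 for growth inhibition calculated.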

[3] = HCC1954 cells, 144 h, CellTiter-Lumi, class symbols, read-out: Inhibitory activity against HCC1954 cells (IC50), class symbols
[4] = class symbols, read-out: Inhibitory activity against MCF-7 cells (IC50), class symbols
[5] = HCC1954 cells, 144 h, CellTiter-Lumi, numeric values, read-out: Inhibitory activity against HCC1954 cells (IC50)
[6] = numeric values, read-out: Inhibitory activity against MCF-7 cells (IC50)

IC50 [1, 3] | IC50 [2, 4] | IC50 [1, 5] | IC50 [2, 6] | SMILES | IC50 ([1]; read-out: Inhibitory activity against HCC1954 cells (IC50))
– | – | 166 nM | 26 nM | C=CC(=O)Nc1ccc(N2CCN(c3ccc4c(c3)-c3nc(N5C(=O)OC[C@H]5C(F)F)cn3CCO4)CC2)cc1 [Compound 174] | –
< 50 nM | < 50 nM | – | – | C=CC(=O)Nc1cnc(N2CC(N3CCN(c4ccc5c(c4)-c4nc(N6C(=O)OC[C@H]6C(F)F)cn4CCO5)CC3)C2)cc1C [Compound 217] | –
< 50 nM | < 50 nM | – | – | CC(C)(C=C(C#N)C(=O)Nc1ccc(N2CC(N3CCN(c4ccc5c(c4)-c4nc(N6C(=O)OC[C@H]6C(F)F)cn4CCO5)CC3)C2)cc1)NCOC(=O)C(C)(C)C [Compound 329] | –
– | – | 65 nM | 4.6 nM | C=CC(=O)Nc1ccc(N2CC(N3CCC(c4ccc5c(c4)-c4nc(N6C(=O)OC[C@H]6C(F)F)cn4CCO5)CC3)C2)cc1 [Compound 104] | –
< 50 nM | < 50 nM | – | – | CNCC#CC(=O)Nc1ccc(N2CC(N3CCN(c4ccc5c(c4)-c4nc(N6C(=O)OC[C@H]6C(F)F)cn4CCO5)CC3)C2)cc1 [Compound 185] | –
< 50 nM | < 50 nM | – | – | CC(C)(C=C(C#N)C(=O)Nc1ccc(N2CC(N3CCN(c4ccc5c(c4)-c4nc(N6C(=O)OC[C@H]6C(F)F)cn4CCO5)CC3)C2)c(Cl)c1)N1CCC1 [Compound 354] | –
– | – | 6.7 nM | 0.6 nM | C=CC(=O)Nc1ccc(N2CC(N3CCN(c4ccc5c(c4)-c4nc(N6C(=O)OC[C@H]6C(F)F)cn4CCO5)CC3)C2)cc1C [Compound 139] | –
– | – | 53 nM | 11 nM | C=C(F)C(=O)Nc1ccc(N2CC(N3CCN(c4ccc5c(c4)-c4nc(N6C(=O)OC[C@H]6C(F)F)cn4CCO5)CC3)C2)cc1 [Compound 99] | –
< 50 nM | < 50 nM | – | – | CNC(C)(C)C=C(C#N)C(=O)Nc1ccc(N2CC(N3CCN(c4ccc5c(c4)-c4nc(N6C(=O)OC[C@H]6C(F)F)cn4CCO5)CC3)C2)nn1 [Compound 299] | –
< 50 nM | < 50 nM | – | – | CC(C)(C=C(C#N)C(=O)Nc1ccc(N2CC(N3CCN(c4ccc5c(c4)-c4nc(N6C(=O)OC[C@H]6C(F)F)cn4CCO5)CC3)C2)cc1)N1CCN(C2COC2)CC1 [Compound 304] | –
– | – | 4.9 nM | 0.2 nM | C=CC(=O)Nc1ccc(N2CC(N3CCN(c4ccc5c(c4)-c4nc(N6C(=O)OC[C@H]6CF)cn4CCO5)CC3)C2)cc1 [Compound 176] | –
< 50 nM | < 50 nM | – | – | CC1(C=C(C#N)C(=O)Nc2ccc(N3CC(N4CCN(c5ccc6c(c5)-c5nc(N7C(=O)OC[C@H]7C(F)F)cn5CCO6)CC4)C3)cc2)CCC1 [Compound 390] | –
– | – | 7 nM | 0.4 nM | C=CC(=O)Nc1ccc(N2CC(N3CCN(c4ccc5c(c4)-c4nc(N6C(=O)OC[C@H]6C(F)F)cn4CCO5)CC3)C2)nc1 [Compound 122] | –
< 50 nM | < 50 nM | – | – | CC(C)(C=C(C#N)C(=O)Nc1ccc(N2CC(N3CCN(c4ccc5c(c4)-c4nc(N6C(=O)OC[C@H]6C(F)F)cn4CCO5)CC3)C2)cc1)N1CCNCC1 [Compound 306] | –
< 50 nM | < 50 nM | – | – | CC(C)(N)C=C(C#N)C(=O)Nc1ccc(N2CC(N3CCN(c4ccc5c(c4)-c4nc(N6C(=O)OC[C@H]6C(F)F)cn4CCO5)CC3)C2)nn1 [Compound 297] | –
< 50 nM | < 50 nM | – | – | CC(C)C=C(C#N)C(=O)Nc1cnc(N2CC(N3CCN(c4ccc5c(c4)-c4nc(N6C(=O)OC[C@H]6C(F)F)cn4CCO5)CC3)C2)nc1 [Compound 262] | –
– | – | 71 nM | 29 nM | CC(C)(C)C=C(C#N)C(=O)Nc1ccc(N2CC(N3CCN(c4ccc5c(c4)-c4nc(N6C(=O)OC[C@H]6C(F)F)cn4CCO5)CC3)C2)cc1 [Compound 136] | –
< 50 nM | < 50 nM | – | – | CC(C)(C=C(C#N)C(=O)Nc1ccc(N2CC(N3CCN(c4ccc5c(c4)-c4nc(N6C(=O)OC[C@H]6C(F)F)cn4CCO5)CC3)C2)cc1)NCC1CCO1 (stereo partly shown) [Compound 382] | –
< 50 nM | < 50 nM | – | – | COCCNC(C)(C)C=C(C#N)C(=O)Nc1ccc(N2CC(N3CCN(c4ccc5c(c4)-c4nc(N6C(=O)OC[C@H]6C(F)F)cn4CCO5)CC3)C2)cn1 [Compound 301] | –
< 50 nM | < 50 nM | – | – | CC(=O)NC(C)(C)C=C(C#N)C(=O)Nc1ccc(N2CC(N3CCN(c4ccc5c(c4)-c4nc(N6C(=O)OC[C@H]6C(F)F)cn4CCO5)CC3)C2)nc1 [Compound 348] | –
– | – | 6 nM | 0.14 nM | C=CC(=O)Nc1ccc(N2CC(N3CCN(c4ccc5c(c4)-c4nc(N6C(=O)SC[C@H]6C(F)F)cn4CCO5)CC3)C2)cc1 [Compound 106] | –

Further lines, the compound ahead of its results:

SMILES | IC50 [1, 3] | IC50 [2, 4] | IC50 [1, 5] | IC50 [2, 6] | IC50 ([1]; read-out: Inhibitory activity against HCC1954 cells (IC50))
C=CC(=O)N1CCC(C2CN(c3ccc(-c4ccc5c(c4)-c4nc(N6C(=O)OC[C@H]6C(F)F)cn4CCO5)cc3)C2)CC1 [Compound 198] | 100 to 1000 nM | 50 to 100 nM | – | – | –
C=CC(=O)N1CCC(CCC(=O)N2CCN(c3ccc4c(c3)-c3nc(N5C(=O)OC[C@H]5C(F)F)cn3CCO4)CC2)CC1 [Compound 7] | – | – | 925 nM | 106 nM | –
Cc1nc(-c2cn3c(n2)-c2cc(N4CCN(C5CN(c6ccc(NC(=O)C(C#N)=CC(C)(C)NC(=O)OC(C)(C)C)cc6)C5)CC4)ccc2OCC3)n(C(C)C)n1 [Compound 338] | < 50 nM | < 50 nM | – | – | –
C=CC(=O)Nc1ccc(N2CC(C#Cc3ccc4c(c3)-c3nc(N5C(=O)OC[C@H]5C(F)F)cn3CCO4)C2)cc1 [Compound 203] | 50 to 100 nM | < 50 nM | – | – | –
C=CC(=O)Nc1ccc(N2CC(N3CCC4(c5ccc6c(c5)-c5nc(N7C(=O)OC[C@H]7C(F)F)cn5CCO6)CC4C3)C2)cc1 (stereo partly shown) [Compound 107] | – | – | – | 16 nM | 131 nM
CC(C)(C=C(C#N)C(=O)Nc1cnc(N2CC(N3CCN(c4ccc5c(c4)-c4nc(N6C(=O)OC[C@H]6C(F)F)cn4CCO5)CC3)C2)nc1)N1CCOCC1 [Compound 258] | < 50 nM | < 50 nM | – | – | –
C=CC(=O)N1CCC(N2CC(N3CCN(c4ccc5c(c4)-c4nc(N6C(=O)OC[C@H]6C(F)F)cn4CCO5)CC3)C2)CC1 [Compound 105] | – | – | 620 nM | 23 nM | –
CC(C)(C=C(C#N)C(=O)Nc1cnc(N2CC(N3CCN(c4ccc5c(c4)-c4nc(N6C(=O)OC[C@H]6C(F)F)cn4CCO5)CC3)C2)nc1)N1CC2(COC2)C1 [Compound 264] | < 50 nM | < 50 nM | – | – | –
C=CC(=O)N1CC(N2CC[C@H](CN3CCN(c4ccc5c(c4)-c4nc(N6C(=O)OC[C@H]6C(F)F)cn4CCO5)CC3)C2)C1 [Compound 92] | – | – | 200 nM | 20 nM | –
Cc1nc(NC(=O)N2CCC[C@H]2C(N)=O)sc1-c1ccnc(C(C)(C)C(F)(F)F)c1 [Alpelisib, reference compound] | – | – | 1610 nM | 216 nM | –
CC(C)(C=C(C#N)C(=O)Nc1ccc(N2CC(N3CCN(c4ccc5c(c4)-c4nc(N6C(=O)OC[C@H]6C(F)F)cn4CCO5)CC3)C2)nc1)N1CC2(COC2)C1 [Compound 246] | < 50 nM | < 50 nM | – | – | –
C=CC(=O)Nc1ccc(N2CC(/C=C/c3ccc4c(c3)-c3nc(N5C(=O)OC[C@H]5C(F)F)cn3CCO4)C2)cc1 [Compound 208] | 50 to 100 nM | < 50 nM | – | – | –
COCCNC(C)(C)C=C(C#N)C(=O)Nc1ncc(N2CC(N3CCN(c4ccc5c(c4)-c4nc(N6C(=O)OC[C@H]6C(F)F)cn4CCO5)CC3)C2)cn1 [Compound 302] | < 50 nM | < 50 nM | – | – | –
C=CC(=O)Nc1ccc(N2CC(N3CCN(c4ccc5c(c4)-c4nc(N6C(=O)OC[C@H]6C)cn4CCO5)CC3)C2)cn1 [Compound 147] | – | – | 29 nM | 1.5 nM | –
